Test results taken from paper PMC11124341, “4-Hydroxybenzoic Acid-Based Hydrazide–Hydrazones as Potent Growth Inhibition Agents of Laccase-Producing Phytopathogenic Fungi That Are Useful in the Protection of Oilseed Crops” (Molecules, 2024).
Converted amounts (≈) assume the structure as drawn. Read-outs that look alike come from different tables or passages of the source.

Columns and labels:
[1] = system: MCF-10A cells; assay: Antiproliferative assay in vitro (SRB); assay type: cell-based, human; conditions: read-out: Average IC50 ± SD, MCF-10A line
Description: (§1) Antiproliferative tests were performed on a normal human breast cell line, MCF-10A, and a mouse embryonic fibroblast: Balb/3T3. Both cell lines were obtained from the American Type Culture Collection (Rockville, MD, USA). The cell lines were maintained in the Institute of Immunology and Experimental Therapy, Wroclaw, Poland. MCF-10A cells were cultured in the F-12 nutrient mixture (Gibco, Scotland, UK), supplemented with 5% horse serum (Gibco, Scotland, UK), […] (Vibrio cholerae Pacini), 10 μg/mL of hydrocortisone and 20 ng/mL of human epidermal growth factor (all from Sigma-Aldrich, Chemie GmbH, Steinheim, Germany). Balb/3T3 cells were cultured in Dulbecco medium (Gibco, Darmstadt, Germany) supplemented with 10% fetal bovine serum (Thermo Fisher Scientific, Waltham, MA, USA) and 2 mM l-glutamine (Sigma-Aldrich, St. Louis, MO, USA). All culture media contained antibiotics: 100 U/mL penicillin (Sigma-Aldrich, St. Louis, MO, USA) and 100 µg/mL streptomycin (Polfa-Tarchomin, Warsaw, Poland). Both cell lines were cultured during the entire experiment in a humid atmosphere at 37 °C and 5% CO2. Amistar 250 SC (fungicide) with active compound azoxystrobin was provided by the Institute of Soil Science and Plant Cultivation, National Research Institute in Pulawy, Department of Weed Science and Tillage Systems in Wroclaw, Poland […].
(§2) Twenty-four hours prior to the applications of the tested compounds, MCF-10A and Balb/3T3 cells were plated in 96-well plates at a density of 10^4 cells per well and cultured at 37 °C in a humid atmosphere saturated with 5% CO2 for 24 h. Stock solutions of the compounds were prepared ex tempore for each test by dissolving in DMSO. The cells were also exposed to the reference drugs: cis-platin (Accord, London, UK) (10–0.01 µg/mL) and DMSO (Sigma-Aldrich) (at the concentrations corresponding to those in the tested agent dilutions). The solutions were then diluted in culture medium RPMI 1640 + Opti-MEM (1:1) (both from Gibco, Scotland, UK), supplemented with 2 mM l-glutamine, 5% fetal bovine serum (all from Sigma-Aldrich Chemie GmbH, Steinheim, Germany). An assay was performed after 72 h of exposure to the tested compounds 13, 17, 18, 19, 25, 27, 30, 4-hba, 4-hbah, and 3,4,5-hba (0.5, 5.0, 50, and to 500 µM) and azoxystrobin fungicide (0.05, 0.5, 5.0 and 50 µM). The antiproliferative effect in vitro was determined by the SRB method (sulforhodamine B colorimetric assay). The optical densities of the samples were measured on the Synergy H4 photometer (BioTek Instruments, Winooski, VT, USA) at 540 nm. The results were calculated as 50% inhibitory concentration (IC50), namely the dose of the tested compound inhibiting proliferation of the tested cells by 50% as compared to the untreated control cells, in the Prolab-3 system based on Cheburator 0.4 software using the two-point method. Each test was repeated 3–5 times.
(§3) Cytotoxicity was performed on two normal cell lines: MCF -10A and Balb/3T3, using as controls cis-platin in the concentrations of 0.03 32, 0.3 32, 3.32 and 33.2 µM and azoxystrobin fungicide in the […]
(§4) were tested in the concentrations of 0.5, 5.0, 50, and 500 µM. The relation of compound concentration […]
(§5) Further, a comparison of the influence of each tested concentration in the group of tested compounds on cell lines was illustrated in Figure S130 a (MCF-10A) and b (Balb/T3T).
(§6) Table S4. Cytotoxicity results for compounds 13, 17, 18, 19, 25, 27, and 30 investigated on normal mammalian lines: MCF -10A and B alb/3T3 using Azoxystrobin (fungicide) and cis-platin as reference compounds.
(§7) Cytotoxicity profile presented as proliferation inhibition, % (y -axis) in the function of compound concentration, […]
(§8) Structure MCF-10A Balb/3T3
(§9) Proliferation inhibition [%] […]

[2] = system: Balb/3T3 cells; assay: Antiproliferative assay in vitro (SRB); assay type: cell-based, mouse; conditions: read-out: Average IC50 ± SD, Balb/3T3 line
Description: as §1, §2, §3, §4, §5, §6, §7, §8, §9

[3] = system: S. sclerotiorum; conditions: cited from earlier work
[4] = system: acetylcholinesterase (AChE); set-up: method as in PMID 33668452; conditions: cited from earlier work
[5] = system: B. cinerea; conditions: cited from earlier work
[6] = system: Mahlavu line; set-up: method as in PMID 26695731; conditions: cited from earlier work
[7] = system: hepatitis C virus (HCV); set-up: method as in PMID 26695731; conditions: read-out: EC50 against HCV; cited from earlier work
[8] = biological target: MPO (myeloperoxidase); set-up: method as in PMID 32278712; conditions: cited from earlier work
[9] = system: Sclerotinia sclerotiorum strain FSc10; assay: In vitro antifungal activity, mycelial growth inhibition on PDA medium; assay type: cell-based; conditions: screening at basal 50 µg/mL, PDA medium, mean ± SD of three determinations
Description: (§10) The cultures of Botrytis cinerea strain FBc05 and Sclerotinia sclerotiorum strain FSc10 were obtained from the collection of the Division of Plant Pathology and Mycology at the Department of Plant Protection of Wroclaw University of Environmental and Life Sciences (Poland). Cerrena unicolor (Bull.ex.Fr.) Murr, strain no. 139, originated from the culture collection of the Department of Biochemistry, University of Lublin (Poland). The stock cultures were maintained on potato dextrose agar at +4 °C and periodically transferred to a fresh medium.
(§11) Prior to the fungicidal activity assay of hydrazide–hydrazones 1–35, we considered ethanol and DMSO as potential dissolution media for tested compounds. […] Furthermore, a very important aspect of biological testing is the careful selection of organic solvents. These are typically used, e.g., methanol, ethanol, acetone, and DMSO, and may be highly toxic for microorganisms in even very low concentrations, such as 1% (v/v). Ethanol and DMSO with a final concentration between 0.1 and 1.0% (v/v) in a PDA medium were used and applied to evaluate the inhibition growth of B. cinerea, S. sclerotiorum, and C. unicolor (see Supplementary Materials). The following procedure was applied to the microorganism testing. The assays of fungi inhibition growth were performed at a basal concentration of 50 µg/mL for all compounds, and detailed experiments were extended for testing between 0 and 50 µg/mL (0, 6.25, 12.5, 25.0, and 50.0 µg/mL) for selected compounds. The tests were carried out on Petri dishes (diameter 60 mm) with PDA medium containing appropriate compound, co-solvent control, and hydrazide–hydrazone dissolved in co-solvent assay. A piece of mycelium with a 5 mm edge taken from the outer edge of the growing fungi on the PDA plate with co-solvent was transferred to a central part of the PDA plate with the examined compound. The plates thus inoculated were incubated at 22 °C in the dark for a time when the control plate containing only the co-solvent was covered entirely with the tested microorganism. For B. cinerea and S. sclerotiorum, the test took 3 days, and for C. unicolor, it took 7 days. Each assay was performed at least in triplicate. […] Model parameters c and e were estimated using the nonlinear least-squares method. Parameters d and b (with two exceptions) were fixed and assumed to be equal. Based on estimated parameters, the values of IC50 were determined. […] The IC50 values were calculated only in cases when the model predicted a decrease in growth rate by more than 50%.
(§12) In vitro antifungal activity
(§13) Prior to the fungicidal activity assay of hydrazide-hydrazones 1–35, we considered ethanol (EtOH) and DMSO as potential dissolution media for tested compounds.
(§14) EtOH and DMSO with a final concentration between 0.1–1.0% (v/v) in a PDA medium were applied to evaluate the inhibition growth of B. cinerea, S. sclerotiorum, and C. unicolor (see Table S3). The following procedure was applied to the microorganism testing with the hydrazide-hydrazones. The assays of fungi inhibition growth were performed at a basal concentration of 50 µg/mL for all compounds, and detailed experiments were extended for testing selected molecules 18, 19, 27, […]
(§15) Table S2. In vitro antifungal activity for DMSO and ethanol co-solvents.

[10] = system: Cerrena unicolor strain no. 139; assay: as above; assay type: cell-based; conditions: Cerrena unicolor, NO.139; screening at basal 50 µg/mL, PDA medium, mean ± SD of three determinations; read-out: fungal growth inhibition, C. unicolor
Description: as §10, §11, §12, §13, §14, §15

[11] = system: Botrytis cinerea strain FBc05; assay: as above; assay type: cell-based; conditions: Botrytis cinerea, FBC05; screening at basal 50 µg/mL, PDA medium, mean ± SD of three determinations; read-out: fungal growth inhibition, B. cinerea
Description: as §10, §11, §12, §13, §14, §15

[12] = system: Candida; set-up: method as in PMID 23142671; conditions: cited from earlier work
[13] = system: Alternaria alternata (Fr.) Keissl; set-up: method as in PMID 24582134; conditions: cited from earlier work
[14] = system: B. cinerea; set-up: method as in PMID 24582134; conditions: cited from earlier work
[15] = system: Fusarium oxysporum Schltdl.; set-up: method as in PMID 24582134; conditions: cited from earlier work
[16] = system: Rhizopus oryzae; set-up: method as in PMID 24582134; conditions: cited from earlier work

`O=C(O)c1cc(O)c(O)c(O)c1` [3,4,5-hba, gallic acid, reference compound] showed an IC50 ([1]; Homo sapiens, MCF-10A, 72 h) of 174 ± 14.3 µM and an IC50 ([2]; Mus musculus, BALB/3T3, 72 h) of 163 ± 1.95 µM.
For `O=C(NN=Cc1cn(-c2ccccc2Cl)nn1)c1ccccc1` [((1-(2-chlorophenyl)-1H-1,2,3-triazol-4-yl)methylene)benzohydrazide], the “activity against S. sclerotiorum” value ([3]; 25 µg/mL) is listed as “inactive”.
In the case of `COc1ccc(/C=N/NC(=O)c2cn(C)c3ccccc3c2=O)cc1OC` [(E)-N′-(3,4-dimethoxybenzylidene)-1-methyl-4-oxo-1,4-dihydroquinoline-3-carbohydrazide], the “S. sclerotiorum growth inhibition” value [3] is listed as “more than 80%”.
In the case of `Cn1cc(C(=O)N/N=C/c2cc3ccccc3[nH]2)c(=O)c2ccccc21` [(E)-N′-((1H-indol-2-yl)methylene)-1-methyl-4-oxo-1,4-dihydroquinoline-3-carbohydrazide], the “S. sclerotiorum growth inhibition” value [3] is given as “more than 80%”.
Compound `CO/C=C(/C(=O)OC)c1ccccc1Oc1cc(Oc2ccccc2C#N)ncn1` [Azoxystrobin, reference compound] has an IC50 ([2]; 72 h exposure, SRB method) of 0.1 ± 0.03 µM.
In the case of `N.N.[Cl][Pt][Cl]` [Cis-platin, reference compound], the IC50 ([1]; 72 h exposure, SRB method) is reported as 9.27 ± 1.63 µM and the IC50 ([2]; 72 h exposure, SRB method) is reported as 9.8 ± 1.93 µM.
In the case of `O=C(N/N=C/c1ccccc1O)c1ccc(C(F)(F)F)cc1` [IX], the BuChE/AChE selectivity [4] is listed as 18.6.
For `CC1N[C@H](C(=O)NN=Cc2ccc(Cl)c(Cl)c2)Cc2c1[nH]c1ccccc21` (stereo partly drawn) [N′-(3,4-dichloro-benzylidene)-(3S)-1-methyl-2,3,4,9-tetrahydro-1H-pyrido[3,4-b]indole-3-carbohydrazide], the “growth inhibition of B. cinerea” value [5] is listed as “more than 80%” and the “growth inhibition of S. sclerotiorum” value [3] is listed as “more than 80%”.
In the case of `CC1N[C@H](C(=O)NN=Cc2ccc(C(C)(C)C)cc2)Cc2c1[nH]c1ccccc21` (stereo partly drawn) [N′-(4-tert-butyl-benzylidene)-(3S)-1-methyl-2,3,4,9-tetra-hydro-1H-pyrido [3,4-b]indole-3-carbohydrazide], the “growth inhibition of B. cinerea” value [5] is listed as “more than 80%” and the “growth inhibition of S. sclerotiorum” value [3] is listed as “more than 80%”.
For `Cc1ccc(C(=O)ON=C2C=CC(=NNC(=O)c3ccccc3)C=C2)cc1` [N′-(4-{[(4-methylbenzoyl)oxy]imino}cyclohexa-2,5-dien-1-ylidene)benzohydrazide], the “restriction of mycelium growth, B. cinerea” value [5] is given as 35%.
In the case of `O=C(NN=Cc1ccccn1)c1cc(-c2ccc(F)cc2F)ccc1O` [XI], the EC50 [6] is listed as 4.74 µM and the EC50 [7] is listed as 3.9 µM.
For `O=C(N/N=C/c1cc(O)ccc1O)c1ccncc1` [X], the IC50 [8] is given as 4.8 µM.
For `O=C(N/N=C/c1ccc(O)cc1O)c1ccccc1` [compound 22], the melting point was 255 to 256 °C (dec.), the “fungal growth inhibition, S. sclerotiorum” value [9] was “n.o” and the inhibition of growth at 50 µg/mL [10] was 75.4 ± 6.2%. It also gave an inhibition of growth at 50 µg/mL [11] of 32 ± 2.9%.
In the case of `O=C(N/N=C/c1cc(O)c(O)cc1O)c1ccc(O)cc1` [compound 23], the melting point is reported as 253 °C (dec.), the inhibition of growth at 50 µg/mL ([9]; Sclerotinia sclerotiorum, FSC10, read-out: fungal growth inhibition, S. sclerotiorum) is reported as 2.7 ± 0.4% and the inhibition of growth at 50 µg/mL [10] is reported as 5.8 ± 2.7%. For the same compound, the inhibition of growth at 50 µg/mL [11] was 6.8 ± 2.5%.
In the case of `COc1cc(/C=N/NC(=O)c2ccc(O)cc2)c(O)c(CO)c1` [compound 26, 4-Hydroxy-N′-[(E)-(2-hydroxy-3-hydroxymethyl-5-methoxyphenyl)methylidene]benzohydrazide], the melting point is reported as 219 to 220 °C, the “fungal growth inhibition, S. sclerotiorum” value [9] is reported as “n.o” and the inhibition of growth at 50 µg/mL [10] is reported as 54.6 ± 3.1%. It also gave an inhibition of growth at 50 µg/mL [11] of 3.2 ± 0.5%.
In the case of `COc1ccc2c3c1O[C@H]1C[C@@H](O)C=C[C@@]31CCN(C)C2` [galantamine, reference compound], the BuChE/AChE selectivity [4] is given as 1.8.
In the case of `CC(=O)N1CCN(c2ccc(OCC3COC(Cn4ccnc4)(c4ccc(Cl)cc4Cl)O3)cc2)CC1` (centres unmarked) [ketoconazole, reference compound], the “MIC, anticandidal activity” value [12] is given as 1 to 31 µg/mL.
For `Cc1ccc(C(C)C)c(O)c1` [thymol], the “MIC (minimum inhibitory concentration), Alternaria alternata” value [13] is listed as 400 µg/mL (≈ 2660 µM), the “MIC (minimum inhibitory concentration), B. cinerea” value [14] is listed as 300 µg/mL (≈ 2000 µM) and the “MIC (minimum inhibitory concentration), Fusarium oxysporum” value [15] is listed as 300 µg/mL (≈ 2000 µM). For the same compound, the “MIC (minimum inhibitory concentration), Rhizopus oryzae” value [16] was 450 µg/mL (≈ 3000 µM).
